Reference: PubChem BioAssay (NCI)
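Protocol summary: plate cells (96-well), add compound at 5 concentrations, incubate 48 h, interpolate endpoints linearly. GI50 marks 50% less growth. The concentration for full growth arrest is given as TGI.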

Legend:
Assay in all cases: inhibition of tumour cell growth, NCI panel, 48 h
MALME-3M melanoma = tested on: MALME-3M melanoma
COLO 205 colon = tested on: COLO 205 colon
U251 CNS = tested on: U251 CNS
SF-295 CNS = tested on: SF-295 CNS
UACC-62 melanoma = tested on: UACC-62 melanoma
HL-60(TB) leukemia = tested on: HL-60(TB) leukemia
SNB-75 CNS = tested on: SNB-75 CNS
SF-539 CNS = tested on: SF-539 CNS
LOX IMVI melanoma = tested on: LOX IMVI melanoma
MCF7 breast = tested on: MCF7 breast

Compound | TGI (MALME-3M melanoma) | TGI (COLO 205 colon) | TGI (U251 CNS) | TGI (SF-295 CNS) | TGI (UACC-62 melanoma) | TGI (HL-60(TB) leukemia) | TGI (SNB-75 CNS) | TGI (SF-539 CNS) | TGI (LOX IMVI melanoma) | GI50 (MALME-3M melanoma) | GI50 (COLO 205 colon) | GI50 (U251 CNS) | GI50 (UACC-62 melanoma) | GI50 (HL-60(TB) leukemia) | GI50 (SF-539 CNS) | GI50 (LOX IMVI melanoma) | GI50 (SF-295 CNS) | GI50 (MCF7 breast) | TGI (MCF7 breast) | GI50 (SNB-75 CNS)
O=C1OC(=O)C23CSCC12C1C=CC3O1 (stereo not drawn) | > 100 µM | > 100 µM | > 100 µM | > 100 µM | > 100 µM | > 100 µM | > 100 µM | > 100 µM | > 100 µM |  |  |  |  |  |  |  |  |  |  | 
O=c1cc[nH]cc1-c1c[nH]ccc1=O | > 100 µM | > 100 µM | > 100 µM | > 100 µM | > 100 µM | > 100 µM | > 100 µM | > 100 µM | > 100 µM |  |  |  |  |  |  |  |  |  |  | 
O=c1c2ccccc2oc2ccccc12 (tested in a mixture with another compound) | 8.18 µM | > 100 µM |  | 53.3 µM | > 100 µM | > 100 µM | 7.58 µM | > 100 µM | 17 µM |  |  |  |  |  |  |  |  |  |  | 
COc1cc(Cc2c(C)cc(OC)c3[nH]c4ccccc4c23)cc2c1[nH]c1ccccc12 | 12.4 µM | > 25 µM | 9.84 µM |  | > 25 µM | > 25 µM |  | 9.23 µM | 8.6 µM | 4.44 µM | 12 µM | 4.96 µM | 5.61 µM | 7.95 µM | 4.61 µM | 3.85 µM |  |  |  | 
CC(C)(C)c1ccc(C2CC(=O)C3=C(C2)Nc2ccccc2N(C(=O)c2ccccc2Cl)C3c2ccc(F)cc2)cc1 (stereo not drawn) | > 100 µM | > 100 µM | > 100 µM | > 100 µM | > 100 µM |  | > 100 µM | > 100 µM | > 100 µM | > 100 µM | > 100 µM | > 100 µM | > 100 µM |  | > 100 µM | > 100 µM | > 100 µM | > 100 µM | > 100 µM | > 100 µM
CCCC(O)c1cn(-c2cccc(S(=O)(=O)O)c2)nn1 (stereo not drawn) | > 100 µM | > 100 µM | > 100 µM | > 100 µM | > 100 µM | > 100 µM | > 100 µM | > 100 µM | > 100 µM |  |  |  |  |  |  |  |  |  |  | 
O=C(O)c1c2c(cc3c(=O)c4ccccc4[nH]c13)CCCC2 | > 100 µM | > 100 µM |  | > 100 µM | > 100 µM | > 100 µM | > 100 µM | > 100 µM | > 100 µM |  |  |  |  |  |  |  |  |  |  | 
COC(=O)c1onc(C2OC(C)(C)OC2C(O)COC(c2ccccc2)(c2ccccc2)c2ccccc2)c1C(=O)OC (stereo not drawn) | > 100 µM | > 100 µM | > 100 µM |  | > 100 µM | > 100 µM |  | > 100 µM |  |  |  |  |  |  |  |  |  |  | > 100 µM | 
CS(=O)(=O)c1ccc(COP(N)(=O)N(CCCl)CCCl)cc1 (stereo not drawn) | > 100 µM | > 100 µM | > 100 µM | > 100 µM | > 100 µM |  | > 100 µM | > 100 µM | > 100 µM |  |  |  |  |  |  |  |  |  |  | 
NC1=NC(SCc2ccccc2CCl)c2ncn(Cc3ccccc3CCl)c2N1 (stereo not drawn) | 3.2 µM | 3.49 µM | 2.82 µM | 5 µM | 10.4 µM |  | 5.47 µM | 10.4 µM | 2.92 µM | 1.44 µM | 1.64 µM | 1.45 µM | 2.54 µM |  | 2.92 µM | 1.35 µM | 1.98 µM | 2.17 µM | 19.9 µM | 2.06 µM
